# Measured values published in paper PMC4832243, “Discovery of Potent VEGFR-2 Inhibitors based on Furopyrimidine and Thienopyrimidne Scaffolds as Cancer Targeting Agents” (Scientific Reports, 2016).
# Assays:
# [1] = system: stem cell factor receptor (c-KIT); conditions: cited from earlier work
# [2] = biological target: RET tyrosine kinase; set-up: method as in PMID 16507829; conditions: cited from earlier work
# [3] = system: Ehrlich ascites carcinoma (EAC) solid tumor; assay: In vivo anticancer activity, EAC solid tumor murine model; set-up: species or system Swiss albino mice; conditions: for Histopathological examination of EAC tumor sections (necrosis): hematoxylin-eosin, 40x; for TGI (%): once daily for 8 consecutive days
# Experimental: Animals. Female Swiss albino mice weighing 15–20 g were used in the present study. They were obtained from the animal breeding laboratory, National Cancer Institute (NCI), Cairo University, Egypt. Animals were kept in our animal facility, faculty of pharmacy, Ain Shams university at 25 ± 2 °C and a relative humidity of 40–45% with alternative day and night cycles of 12 h each. Animals had free access to pellet food and water ad libitum. Standard diet pellets (El-Nasr, Abu Zaabal, Egypt) contained not less than 20% protein, 5% fiber, 3.5% fat, 6.5% ash and a vitamin mixture. Animal care and experiments were conducted in accordance with the protocols approved by the Ethics Research Committee, Faculty of Pharmacy, Ain Shams University, following the Institutional Animal Care and Use Committee guidelines.
# Tumor cells preparation and transplantation. Ehrlich ascites carcinoma (EAC) cells were obtained from NCI, Cairo University, Egypt. EAC cells were maintained in the ascitic form in Swiss albino mice by intraperitoneal transplantation of each mouse every 10 days. Ascitic fluid was drawn from tumor-bearing mice at the log phase (7–8th day of tumor bearing) of the tumor cells. The freshly drawn fluid was diluted with ice-cold sterile isotonic saline. 200 μl tumor cell suspension containing 2 × 10^6 tumor cells were then subcutaneously injected in each mouse.
# Experimental design. Swiss albino mice were divided into six groups (n = 6 per group).
# Evaluation of effectiveness. Tumor growth curve was drawn according to the change in tumor volume from first day of treatment (day 0) till day 7. Longest and shortest diameters of the solid tumor were monitored using a digital vernier caliper. Tumor volume (TV) of each animal was calculated using the following formula: […]
# Tumor growth inhibition (TGI) was calculated as follows.
# RTV = (Tumor volume at the day of measurement)/Tumor volume at the initial day.
# Histopathological Examination
# thickness by slidge microtome.
# graded ethanol solutions.
# [4] = system: platelet-derived growth factor receptor-B (PDGFR-B); conditions: cited from earlier work
# [5] = system: wild-type b-Raf; conditions: read-out: wild-type b-Raf IC50; cited from earlier work
# [6] = biological target: fms-related tyrosine kinase 3 receptor (FLT3); conditions: cited from earlier work
# [7] = biological target: c-Raf (Homo sapiens, UniProt P04049); assay: In vitro multiple-kinase inhibition assay, c-Raf; format: biochemical
# Experimental: (§1) In vitro multiple-kinase inhibition assay. […] Kinase enzymatic activity of the tested compounds was evaluated against a reference kinase inhibitor at 10 μM (Table 2).
# (§2) The multiple kinases activity at single dose concentration of 10 μM was performed, c-Kit, c-Raf, c-Src, RET served as the enzyme source. […] Kinase-Glo Plus Luminescence kinase assay kit (Promega#V3772), ADP-Glo Luminescence assay kit was used for c-kit assay (Supplementary). […]
# (§3) mM MgCl2, 0.1 mg/ml BSA, 1 mM DTT, 10 µM ATP, Kinase substrate and VEGFR. After the enzymatic reaction, 50 µl of Kinase-Glo Plus Luminescence kinase assay solution (Promega) was added to each reaction and incubate the plate for 5 minutes at room temperature.
# (§4) Luminescence signal was measured using a BioTek Synergy 2 microplate reader. VEGFR activity assays were performed in duplicate at each concentration.
# (§5) The luminescence data were analyzed using the computer software, Graphpad Prism. The difference between luminescence intensities in the absence of VEGFR (Lut) and in the presence of VEGFR (Luc) was defined as 100 % activity (Lut – Luc). Using luminescence signal (Lu) in the presence of the compound, % activity was calculated as:
# (§6) % activity = {(Lut - Lu)/(Lut - Luc)}×100%, where Lu= the luminescence intensity in the […]
# (§7) IC50 determination for inhibitor against VEGFR was calculated. The values of % activity versus a series of compound concentrations (1 nM - 10 nM - 100 nM - 1 µM - 10 µM) were then […]
# (§8) or Hill coefficient. The IC50 value was determined by the concentration causing a half-maximal […]
# (§9) In vitro multiple-kinase inhibition assay
# (§10) Luminescence signal was measured using a BioTek Synergy 2 microplate reader […]
# (§11) The luminescence data were analyzed using the same computer software and the same protocol
# [8] = Toxicity: vital organs' indices and histopathology in EAC solid tumor bearing mice; format: in vivo, Swiss albino mice; conditions: for Histopathological examination of liver, kidney, heart and brain samples: 10 mg/kg, EAC solid tumor bearing mice (40x); for Brain Index / Heart Index / Kidney Index / Liver Index: mean ± SD (n = 6)
# [9] = biological target: T1, VEGFR-2 (KDR) (Homo sapiens, UniProt P35968); assay: In vitro VEGFR-2 tyrosine kinase activity (Kinase-Glo Plus luminescence, BPS Bioscience); format: biochemical; conditions: 5 concentrations 1 nM - 10 μM
# T1 construct: purchased BPS Bioscience 40301
# [10] = biological target: phospho-VEGFR-2 (Tyr951) (Mus musculus, UniProt P35918); assay: Immunohistochemistry of EAC solid tumor sections, phospho-VEGFR-2; conditions: oral treatment of EAC-bearing mice
# [11] = biological target: RET (Homo sapiens, UniProt P07949); assay: In vitro multiple-kinase inhibition assay, RET; format: biochemical
# Experimental: as §1, §2, §3, §4, §5, §6, §7, §8, §9, §10, §11
# [12] = system: HUVEC umbilical vein endothelial cells; assay: In vitro HUVEC anti-proliferative assay (alamarBlue); format: cell-based; conditions: Homo sapiens, HUVEC proliferation at 10 μM, 72 hours
# [13] = system: CD31 and CD34 (% MVD); assay: Immunohistochemistry of EAC solid tumor sections, microvessel density (CD31, CD34); conditions: oral treatment of EAC-bearing mice
# [14] = biological target: c-Kit (Homo sapiens, UniProt P10721); assay: In vitro multiple-kinase inhibition assay, c-Kit (ADP-Glo); format: biochemical
# Experimental: as §1, §2, §3, §4, §5, §6, §7, §8, §9
# The assay was performed using the same conditions for VEGFR-2 activity assay (section 5.2.1.1). The assays for c-Kit was an exception, it was performed using ADP-Glo Kinase assay reagents (Promega). It measures kinase activity by quantitating the ADP amount produced from the enzymatic reaction. The luminescent signal from the assay is correlated with the amount of ADP present and is directly correlated with the amount of kinase activity. Other conditions are same to the previous section except the final reaction volume was reduced to 25 µl. After the 40 min kinase reaction at 30 °C, 25 µl of ADP-Glo reagent was added and incubated for 45 min at room temperature followed by another 50 min incubation with 50 µl of Kinase detection mixture.
# as §10, §11
# [15] = biological target: c-Src (Homo sapiens, UniProt P12931); assay: In vitro multiple-kinase inhibition assay, c-Src; format: biochemical
# Experimental: as §1, §2, §3, §4, §5, §6, §7, §8, §9, §10, §11
# [16] = system: active caspase 3; assay: Immunohistochemistry of EAC solid tumor sections, active caspase 3; conditions: oral treatment of EAC-bearing mice
# [17] = system: VEGF-induced vascular permeability (Evans Blue extravasation); assay: Miles vascular permeability assay; set-up: species or system mice; conditions: in vivo; 10 mg/kg (Fig. 15)
# Experimental: Miles Vascular Permeability Assay. One to two days prior to the experiment, mice were shaved to expose the skin. Mice were anesthetized with intra-peritoneal injection of Avertin. A sterile solution of 1% Evans Blue (EB) in PBS was prepared and 100 μl was injected IV into the tail vein, using a needle (small gauge, 27–30) at a 10–15 degree angle. The animals were then left for (30–60) min. VEGF (50 μl of 1 ng/μl) and 50 μl of PBS with 0.05% gelatin were injected intradermally using a 30-gauge needle into the skin overlying the back. After 20 min, the animals were sacrificed by cervical dislocation that is recommended to limit significant interference with vascular permeability. The skin was opened, exposed and representative pictures were taken to assess the intensity of EB […]. The Formamide/EB mixture was centrifuged and supernatant absorbance was measured at 600 nm (Shimadzu Spectrophotometer, UV-1601; Japan). extravasation was calculated as ng EB per mg tissue.
# [18] = system: VEGFR-2; conditions: read-out: VEGFR-2 IC50 of pyrrolo[3,2-d]pyrimidine derivative (III); cited from earlier work
# Sequence of c-Raf (P04049 whole entry, species assumed): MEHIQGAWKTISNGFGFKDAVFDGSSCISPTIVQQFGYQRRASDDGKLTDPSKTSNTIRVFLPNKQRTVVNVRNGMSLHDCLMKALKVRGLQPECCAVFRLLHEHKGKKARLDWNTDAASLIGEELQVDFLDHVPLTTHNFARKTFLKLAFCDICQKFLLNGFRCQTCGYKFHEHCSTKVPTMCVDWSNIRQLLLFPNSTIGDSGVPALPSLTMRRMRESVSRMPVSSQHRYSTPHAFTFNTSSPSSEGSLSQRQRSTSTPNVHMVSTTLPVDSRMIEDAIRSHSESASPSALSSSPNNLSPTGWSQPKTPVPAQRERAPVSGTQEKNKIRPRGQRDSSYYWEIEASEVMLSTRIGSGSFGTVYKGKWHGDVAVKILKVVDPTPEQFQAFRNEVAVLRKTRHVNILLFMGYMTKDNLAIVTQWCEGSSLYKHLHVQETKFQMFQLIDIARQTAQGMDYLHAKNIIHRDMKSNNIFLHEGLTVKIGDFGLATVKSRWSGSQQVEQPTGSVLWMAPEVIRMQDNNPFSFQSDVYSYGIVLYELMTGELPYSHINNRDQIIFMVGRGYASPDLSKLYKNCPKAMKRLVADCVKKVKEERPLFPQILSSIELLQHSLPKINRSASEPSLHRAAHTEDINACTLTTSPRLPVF
# Sequence of RET (P07949 29-1114, species assumed): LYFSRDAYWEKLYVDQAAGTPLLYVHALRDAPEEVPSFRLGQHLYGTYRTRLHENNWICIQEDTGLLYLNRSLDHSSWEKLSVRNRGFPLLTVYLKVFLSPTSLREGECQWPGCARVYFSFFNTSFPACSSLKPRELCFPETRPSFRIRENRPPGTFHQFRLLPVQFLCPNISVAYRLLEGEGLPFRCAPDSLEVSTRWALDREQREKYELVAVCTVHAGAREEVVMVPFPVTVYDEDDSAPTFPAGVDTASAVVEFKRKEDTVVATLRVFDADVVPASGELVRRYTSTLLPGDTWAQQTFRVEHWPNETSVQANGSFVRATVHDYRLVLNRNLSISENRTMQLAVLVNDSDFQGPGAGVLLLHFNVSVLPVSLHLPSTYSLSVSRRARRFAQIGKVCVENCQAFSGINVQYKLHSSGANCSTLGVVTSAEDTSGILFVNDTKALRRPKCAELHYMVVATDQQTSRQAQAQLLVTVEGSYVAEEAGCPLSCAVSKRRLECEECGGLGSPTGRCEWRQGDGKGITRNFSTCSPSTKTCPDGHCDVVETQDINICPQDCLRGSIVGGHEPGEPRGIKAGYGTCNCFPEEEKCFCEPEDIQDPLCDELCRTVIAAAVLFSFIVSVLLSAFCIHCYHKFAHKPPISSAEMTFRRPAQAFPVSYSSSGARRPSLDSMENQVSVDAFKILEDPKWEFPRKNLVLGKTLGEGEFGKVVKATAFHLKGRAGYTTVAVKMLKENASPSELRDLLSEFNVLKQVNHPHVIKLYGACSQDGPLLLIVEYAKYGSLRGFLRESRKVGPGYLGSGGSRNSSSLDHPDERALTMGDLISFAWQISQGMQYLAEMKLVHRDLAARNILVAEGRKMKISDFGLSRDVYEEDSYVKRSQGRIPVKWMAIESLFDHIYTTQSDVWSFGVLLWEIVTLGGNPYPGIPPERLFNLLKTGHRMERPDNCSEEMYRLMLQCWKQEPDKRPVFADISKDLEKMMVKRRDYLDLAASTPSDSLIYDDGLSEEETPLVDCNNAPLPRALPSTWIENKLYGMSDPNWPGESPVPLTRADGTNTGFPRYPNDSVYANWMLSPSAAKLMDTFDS
# Sequence of c-Kit (P10721 26-976): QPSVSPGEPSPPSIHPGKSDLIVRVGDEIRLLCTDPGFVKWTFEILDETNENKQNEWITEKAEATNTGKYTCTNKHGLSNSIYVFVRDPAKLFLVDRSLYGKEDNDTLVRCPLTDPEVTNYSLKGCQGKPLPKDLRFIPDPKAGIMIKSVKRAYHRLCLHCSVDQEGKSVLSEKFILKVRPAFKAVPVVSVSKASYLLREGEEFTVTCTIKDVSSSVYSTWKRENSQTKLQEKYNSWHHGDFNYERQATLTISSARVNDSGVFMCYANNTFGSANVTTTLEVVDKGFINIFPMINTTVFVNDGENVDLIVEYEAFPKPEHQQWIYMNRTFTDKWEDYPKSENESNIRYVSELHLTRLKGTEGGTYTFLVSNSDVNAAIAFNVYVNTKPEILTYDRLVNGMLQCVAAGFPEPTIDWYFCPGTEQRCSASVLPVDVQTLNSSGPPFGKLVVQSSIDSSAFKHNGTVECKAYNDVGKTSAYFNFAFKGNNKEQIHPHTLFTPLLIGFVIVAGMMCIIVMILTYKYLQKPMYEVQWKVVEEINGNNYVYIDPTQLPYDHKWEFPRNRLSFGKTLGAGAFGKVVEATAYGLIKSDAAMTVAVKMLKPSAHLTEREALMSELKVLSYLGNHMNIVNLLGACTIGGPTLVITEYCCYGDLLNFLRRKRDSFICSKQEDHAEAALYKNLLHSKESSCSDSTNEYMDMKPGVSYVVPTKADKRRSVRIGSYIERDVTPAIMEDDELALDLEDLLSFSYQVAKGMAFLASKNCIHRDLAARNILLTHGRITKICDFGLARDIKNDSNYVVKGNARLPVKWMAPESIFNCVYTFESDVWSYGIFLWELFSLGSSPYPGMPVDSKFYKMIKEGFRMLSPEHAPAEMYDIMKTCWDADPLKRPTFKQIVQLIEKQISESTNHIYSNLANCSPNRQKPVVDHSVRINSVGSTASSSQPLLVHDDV
# Sequence of phospho-VEGFR-2 (Tyr951) (P35918 20-1345): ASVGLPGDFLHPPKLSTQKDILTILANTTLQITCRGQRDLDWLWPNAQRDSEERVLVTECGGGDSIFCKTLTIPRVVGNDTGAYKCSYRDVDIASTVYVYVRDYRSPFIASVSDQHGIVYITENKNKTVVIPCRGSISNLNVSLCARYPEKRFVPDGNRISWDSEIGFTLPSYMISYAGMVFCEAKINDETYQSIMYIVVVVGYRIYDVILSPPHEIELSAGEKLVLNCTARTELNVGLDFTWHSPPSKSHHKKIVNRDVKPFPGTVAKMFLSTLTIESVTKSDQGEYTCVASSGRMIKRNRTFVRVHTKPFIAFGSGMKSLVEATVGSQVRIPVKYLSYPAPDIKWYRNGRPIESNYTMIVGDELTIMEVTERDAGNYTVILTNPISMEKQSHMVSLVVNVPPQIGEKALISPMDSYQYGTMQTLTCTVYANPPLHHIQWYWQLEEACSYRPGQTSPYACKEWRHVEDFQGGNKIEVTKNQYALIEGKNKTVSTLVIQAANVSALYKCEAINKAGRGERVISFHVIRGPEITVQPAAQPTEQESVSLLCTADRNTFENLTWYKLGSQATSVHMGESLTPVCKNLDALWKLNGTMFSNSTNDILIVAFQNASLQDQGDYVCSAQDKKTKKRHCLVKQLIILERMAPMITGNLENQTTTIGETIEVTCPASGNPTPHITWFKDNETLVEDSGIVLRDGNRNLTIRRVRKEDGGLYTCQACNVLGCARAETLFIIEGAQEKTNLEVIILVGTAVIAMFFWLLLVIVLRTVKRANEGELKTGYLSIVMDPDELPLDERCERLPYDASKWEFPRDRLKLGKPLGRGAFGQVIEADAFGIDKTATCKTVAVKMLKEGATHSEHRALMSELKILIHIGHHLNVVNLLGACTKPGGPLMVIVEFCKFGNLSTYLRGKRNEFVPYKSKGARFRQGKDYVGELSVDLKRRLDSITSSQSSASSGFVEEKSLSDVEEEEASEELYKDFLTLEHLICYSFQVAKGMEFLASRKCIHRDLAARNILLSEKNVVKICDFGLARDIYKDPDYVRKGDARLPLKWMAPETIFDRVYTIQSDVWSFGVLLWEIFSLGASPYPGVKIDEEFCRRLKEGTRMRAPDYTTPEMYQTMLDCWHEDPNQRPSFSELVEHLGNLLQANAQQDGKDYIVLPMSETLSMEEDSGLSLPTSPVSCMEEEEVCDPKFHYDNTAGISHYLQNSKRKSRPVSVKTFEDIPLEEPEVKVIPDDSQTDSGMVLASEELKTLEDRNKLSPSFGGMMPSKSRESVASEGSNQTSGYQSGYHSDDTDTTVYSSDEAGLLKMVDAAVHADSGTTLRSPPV
# Sequence of c-Src (P12931 whole entry, species assumed): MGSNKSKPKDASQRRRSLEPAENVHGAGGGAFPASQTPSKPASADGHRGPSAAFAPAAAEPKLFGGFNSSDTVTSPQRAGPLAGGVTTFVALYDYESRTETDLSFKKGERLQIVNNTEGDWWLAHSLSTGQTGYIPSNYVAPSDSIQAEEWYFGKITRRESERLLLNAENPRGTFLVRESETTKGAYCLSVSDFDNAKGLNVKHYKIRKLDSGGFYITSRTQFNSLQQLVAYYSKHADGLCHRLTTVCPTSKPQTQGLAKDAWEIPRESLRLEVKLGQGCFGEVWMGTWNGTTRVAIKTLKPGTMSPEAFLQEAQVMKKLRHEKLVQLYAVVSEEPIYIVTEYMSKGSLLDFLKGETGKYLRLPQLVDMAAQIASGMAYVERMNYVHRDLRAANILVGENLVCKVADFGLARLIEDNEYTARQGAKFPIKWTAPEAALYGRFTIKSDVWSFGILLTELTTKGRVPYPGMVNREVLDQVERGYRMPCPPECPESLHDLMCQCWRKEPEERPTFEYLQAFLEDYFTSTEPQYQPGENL
structure (smiles),measurement,setting,value
CNC(=O)c1cc(Oc2ccc(NC(=O)Nc3ccc(Cl)c(C(F)(F)F)c3)cc2)ccn1 [Sorafenib],IC50,[1],68 nM
same,IC50,[2],50 nM
same,Histopathological examination of EAC tumor sections (necrosis),[3]; 10 mg/kg,wide severe necrosis
same,IC50,[4],57 nM
same,IC50,[5],25 nM
same,IC50,[6],33 nM
same,inhibition at 1 µM,"[7]; read-out: Inhibition %, c-Raf, reference inhibitor",92%
same,"Histopathological examination of liver, kidney, heart and brain samples",[8],Degenerative changes were found in the hepatocytes and hippocampus
Cc1ccc(NC(=O)Nc2ccc(Oc3ncnc4sc5c(c34)CCCC5)cc2)cc1Cl [Compound 21e],IC50,[9],21 nM
same,VEGFR-2 phosphorylation in EAC solid tumor,[10],decreased VEGFR-2 phosphoryaltion
same,inhibition at 10 µM,[11],91%
same,activity at 10 µM,[12]; read-out: % Cell growth,54%
same,inhibition at 10 µM,[12]; read-out: % Cell inhibition,46%
same,%MVD in EAC solid tumor,[13],reduction of %MVD
same,Tumor Index,"[3]; 5 mg/kg/day po, 8 consecutive days, mean ± SD, n = 6",0.041 ± 0.007
same,TGI (%),[3]; 5 mg/kg/day po,79.1%
same,Histopathological examination of EAC tumor sections (necrosis),[3]; 5 mg/kg,moderate diffuse necrosis
same,TGI (%),[3]; 10 mg/kg/day po,82.7%
same,Histopathological examination of EAC tumor sections (necrosis),[3]; 10 mg/kg,severe necrosis in a wide area
same,inhibition at 10 µM,[14],64%
same,inhibition at 10 µM,[15],6%
same,Active caspase 3 levels in EAC solid tumor,[16],increased active caspase 3 levels
same,Antiangiogenic effect in Miles vascular permeability assay,[17],confirmed the antiangiogenic effects
same,inhibition at 10 µM,[7],71%
same,Brain Index,[8]; 5 mg/kg/day po,0.0167 ± 0.002
same,Heart Index,[8]; 5 mg/kg/day po,0.0044 ± 0.0013
same,Kidney Index,[8]; 5 mg/kg/day po,0.012 ± 0.002
same,Liver Index,[8]; 5 mg/kg/day po,0.048 ± 0.006
same,Brain Index,[8]; 10 mg/kg/day po,0.0174 ± 0.002
same,Heart Index,[8]; 10 mg/kg/day po,0.0056 ± 0.0009
same,Kidney Index,[8]; 10 mg/kg/day po,0.013 ± 0.002
same,Liver Index,[8]; 10 mg/kg/day po,0.057 ± 0.007
same,"Histopathological examination of liver, kidney, heart and brain samples",[8],"without any histopathological alterations in liver, kidney and brain"
same,Toxicity (overall statement),"[8]; oral, 5 and 10 mg/kg/day for 8 consecutive days",did not show any noticeable toxicity
Cn1ccc2ncnc(Oc3ccc(NC(=O)Nc4cccc(C(F)(F)F)c4)c(F)c3)c21 [III],IC50,[18],6.2 nM
